This passage reports T/C results from PubChem BioAssay AID330 (DTP/NCI, 2004).

Values joined by “and” are separate entries in the source; they are usually repeats but may differ in a detail not shown here. Equal entries are not always repeated. Inconclusive results and toxic doses are left out.

The subject of this experiment is P388 leukemia ip, CD2F1 mice, survival T/C. As to the kind of experiment: NCI In Vivo Anticancer Drug Screen. Data for tumor model P388 Leukemia (intraperitoneal) in CD2F1 (CDF1) mice. The following applies: endpoint: median survival time, higher = longer survival. A digest of the protocol: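 Mice carrying the transplanted tumor received test compound or vehicle. Survival was recorded in each group, and the value is the treated-group measurement divided by that of the vehicle-treated control group.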

Setting [1] is: dose: 50.0 mg/kg/injection, schedule: Q01DX005 (ip), vehicle: Klucel (hydroxypropylcellulose) (HPC).
Setting [2] is: dose: 100.0 mg/kg/injection, schedule: Q01DX005 (ip), vehicle: Klucel (hydroxypropylcellulose) (HPC).
[3] abbreviates: dose: 50.0 mg/kg/injection, schedule: Q01DX009 (ip), vehicle: Klucel (hydroxypropylcellulose) (HPC).
Setting [4] is: dose: 100.0 mg/kg/injection, schedule: Q01DX009 (ip), vehicle: Klucel (hydroxypropylcellulose) (HPC).
[5] abbreviates: dose: 60.0 mg/kg/injection, schedule: Q01DX005 (ip), vehicle: saline with Tween-80.
Where [6] appears, read: dose: 120.0 mg/kg/injection, schedule: Q01DX005 (ip), vehicle: saline with Tween-80.
Where [7] appears, read: dose: 240.0 mg/kg/injection, schedule: Q01DX005 (ip), vehicle: saline with Tween-80.
Where [8] appears, read: dose: 50.0 mg/kg/injection, schedule: Q01DX005 (ip), vehicle: saline with Tween-80.
The mark [9] stands for this setting: dose: 100.0 mg/kg/injection, schedule: Q01DX005 (ip), vehicle: saline with Tween-80.
Setting [10] is: dose: 200.0 mg/kg/injection, schedule: Q01DX009 (ip), vehicle: Klucel (hydroxypropylcellulose) (HPC).
Where [11] appears, read: dose: 50.0 mg/kg/injection, schedule: Q01DX009 (ip), vehicle: saline.
[12] abbreviates: dose: 100.0 mg/kg/injection, schedule: Q01DX009 (ip), vehicle: saline.
Setting [13] is: dose: 200.0 mg/kg/injection, schedule: Q01DX009 (ip), vehicle: saline.

In the case of `Nc1nc2cc([N+](=O)[O-])cnc2s1`, the T/C was 103 % of control (dose: 100.0 mg/kg/injection, schedule: Q04DX003 (ip), vehicle: Klucel (hydroxypropylcellulose) (HPC)); 101 % of control (dose: 200.0 mg/kg/injection, schedule: Q04DX003 (ip), vehicle: Klucel (hydroxypropylcellulose) (HPC)); 100 % of control (dose: 400.0 mg/kg/injection, schedule: Q04DX003 (ip), vehicle: Klucel (hydroxypropylcellulose) (HPC)).

Regarding `CN(C)CCOc1cnc2ccc(Cl)cc2n1`, the T/C is 88 % of control under setting [1] and 88 % of control under setting [2].

With `O=C(O)CN1C(=O)c2cccc3cccc(c23)C1=O`, the T/C runs as follows: (dose: 50.0 mg/kg/injection, schedule: Q01DX009 (ip), vehicle: suspension in saline) 101 % of control; (dose: 100.0 mg/kg/injection, schedule: Q01DX009 (ip), vehicle: suspension in saline) 102 % of control; (dose: 200.0 mg/kg/injection, schedule: Q01DX009 (ip), vehicle: suspension in saline) 100 % of control.

Take `O=C1CCN=C2C(=O)c3ccccc3C(O)=C12`: the T/C runs as follows: (dose: 25.0 mg/kg/injection, schedule: Q01DX009 (ip), vehicle: Klucel (hydroxypropylcellulose) (HPC)) 115 % of control; under setting [3], 123 % of control; under setting [4], 121 % of control.

On to `CS/C(=N\S(=O)(=O)c1ccccc1)NNC(=O)c1c(-c2c(Cl)cccc2Cl)noc1C`, for which the T/C is, setting by setting: under setting [5], 100 % of control; under setting [6], 100 % of control; under setting [7], 91 % of control.

In the case of `Nc1ncnc2c1c(-c1ccc(Cl)cc1)cn2-c1ccc(I)cc1`, the T/C reads like this: under setting [5], 100 % of control; under setting [6], 102 % of control; under setting [7], 88 % of control.

Take `NCc1cccn1OCc1ccccc1`: the T/C reads like this: under setting [5], 100 % of control; under setting [6], 106 % of control; under setting [7], 104 % of control.

With `COc1cccc2c1C(=O)c1c(O)c3c(c(O)c1C2=O)C[C@@](O)(C(=O)COC(C)=O)C[C@@H]3OC1CC(N)C(O)C(C)O1` (some centres undefined), the T/C is, setting by setting: (dose: 0.08 mg/kg/injection, schedule: Q01DX009 (ip), vehicle: saline sonified) 200 % of control; (dose: 1.5 mg/kg/injection, schedule: Q01DX009 (ip), vehicle: saline sonified) 150 % of control.

Consider `CCCCCCC(C)N=[N+]([O-])CC(C)OC(C)=O` (centres undefined), for which the T/C by setting is: (dose: 10.0 mg/kg/injection, schedule: Q01DX009 (ip), vehicle: saline with Tween-80) 121 % of control; (dose: 20.0 mg/kg/injection, schedule: Q01DX009 (ip), vehicle: saline with Tween-80) 105 % of control; (dose: 40.0 mg/kg/injection, schedule: Q01DX009 (ip), vehicle: saline with Tween-80) 121 % of control.

Regarding `Cc1ccccc1-n1c(=S)n(-c2ccc(Cl)cc2)c2nc3ccccc3nc1/c2=N/Nc1cc(Cl)ccc1Cl`, the T/C is, setting by setting: under setting [8], 95 % of control; under setting [9], 92 % of control.

As for `C[Se]C(C)(C)C(O)(Cc1ccccc1)c1ccccc1` (centres undefined), the T/C reads like this: (dose: 25.0 mg/kg/injection, schedule: Q04DX002 (ip), vehicle: saline with Tween-80) 88 % of control; (dose: 50.0 mg/kg/injection, schedule: Q04DX002 (ip), vehicle: saline with Tween-80) 94 % of control; (dose: 100.0 mg/kg/injection, schedule: Q04DX002 (ip), vehicle: saline with Tween-80) 101 % of control.

Consider `COC1(C)OC23C(=O)N(C)C(=O)N(C)C2(O1)N(C(C)=O)C(=O)N3C` (centres undefined), for which the T/C is 100 % of control under setting [8]; 105 % of control under setting [9]; 98 % of control (dose: 200.0 mg/kg/injection, schedule: Q01DX005 (ip), vehicle: saline with Tween-80).

As to `c1ccc([P+](NCCN[P+](c2ccccc2)(c2ccccc2)c2ccccc2)(c2ccccc2)c2ccccc2)cc1`, the T/C is, setting by setting: (dose: 6.25 mg/kg/injection, schedule: Q01DX009 (ip), vehicle: saline) 97 % of control; (dose: 12.5 mg/kg/injection, schedule: Q01DX009 (ip), vehicle: saline) 100 % of control.

With `Cc1c(NC(=S)Nc2c(C(C)C)cccc2C(C)C)c(=O)n(-c2ccccc2)n1C`, the T/C reads like this: under setting [3], 113 % of control; under setting [4], 106 % of control; under setting [10], 106 % of control.

As for `COC(=O)C(C(C)=O)C(=O)c1cc([N+](=O)[O-])cc([N+](=O)[O-])c1` (centres undefined), the T/C reads like this: (dose: 100.0 mg/kg/injection, schedule: Q04DX002 (ip), vehicle: Klucel (hydroxypropylcellulose) (HPC)) 98 % of control; (dose: 200.0 mg/kg/injection, schedule: Q04DX002 (ip), vehicle: Klucel (hydroxypropylcellulose) (HPC)) 100 % of control; (dose: 400.0 mg/kg/injection, schedule: Q04DX002 (ip), vehicle: Klucel (hydroxypropylcellulose) (HPC)) 97 % of control.

`CCc1cccc(CC)c1NC(=S)Nc1c(C)n(C)n(-c2ccccc2)c1=O`: the T/C was 106 % of control under setting [3], 103 % of control under setting [4] and 95 % of control under setting [10].

In the case of `CC[n+]1c(/C=C/c2ccc(N(CCC(=O)O)CCC(=O)O)cc2)sc2ccccc21`, the T/C runs as follows: (dose: 12.5 mg/kg/injection, schedule: Q04DX003 (ip), vehicle: saline with Tween-80) 99 % of control; (dose: 25.0 mg/kg/injection, schedule: Q04DX003 (ip), vehicle: saline with Tween-80) 100 % of control; (dose: 50.0 mg/kg/injection, schedule: Q04DX003 (ip), vehicle: saline with Tween-80) 101 % of control.

As for `C/C(=N\NC(=S)N1CCCC1)c1cnccn1`, the T/C runs as follows: (dose: 6.25 mg/kg/injection, schedule: Q01DX005 (ip), vehicle: saline with Tween-80) 100 % of control; (dose: 12.5 mg/kg/injection, schedule: Q01DX005 (ip), vehicle: saline with Tween-80) 103 % of control; (dose: 25.0 mg/kg/injection, schedule: Q01DX005 (ip), vehicle: saline with Tween-80) 100 % of control.

On to `COc1cc2c(cc1OC)[N+]([O-])=C(c1ccccc1)C2=O`, for which the T/C by setting is: under setting [1], 94 % of control; under setting [2], 93 % of control.

Take `O=C1NCC(=O)C(=O)N1`: the T/C was 100 % of control and 106 % of control under setting [11]; 101 % of control and 103 % of control under setting [12]; 100 % of control and 110 % of control under setting [13]; 103 % of control and 105 % of control (dose: 400.0 mg/kg/injection, schedule: Q01DX009 (ip), vehicle: saline).

Take `Cc1ccnc(NN=O)c1`: the T/C (dose: 1.5 mg/kg/injection, schedule: Q01DX009 (ip), vehicle: water) was 109 % of control; the T/C (dose: 1.56 mg/kg/injection, schedule: Q01DX009 (ip), vehicle: water) is 100 % of control; the T/C (dose: 3.0 mg/kg/injection, schedule: Q01DX009 (ip), vehicle: water) is 109 % of control; the T/C (dose: 3.12 mg/kg/injection, schedule: Q01DX009 (ip), vehicle: water) was 117 % of control; the T/C (dose: 6.25 mg/kg/injection, schedule: Q01DX009 (ip), vehicle: water) is 159 % of control; the T/C (dose: 12.5 mg/kg/injection, schedule: Q01DX009 (ip), vehicle: water) was 87 % of control.

Consider `NC(CCS)C(=O)O` (centres undefined), for which the T/C is, setting by setting: under setting [8], 90 % of control; under setting [9], 92 % of control.

In the case of `COc1cc(/C=C2\SC(=S)N(C3CC3)C2=O)ccc1O`, the T/C under setting [11] is 97 % of control; the T/C under setting [12] is 107 % of control; the T/C under setting [13] was 104 % of control and 91 % of control.

Regarding `C=C1CCC2C(OC(=O)C2(COC(C)=O)OC(C)=O)C2C(=C)C(OC(C)=O)CC12` (centres undefined), the T/C runs as follows: (dose: 11.25 mg/kg/injection, schedule: Q01DX005 (ip), vehicle: Klucel (hydroxypropylcellulose) (HPC)) 100 % of control; (dose: 22.5 mg/kg/injection, schedule: Q01DX005 (ip), vehicle: Klucel (hydroxypropylcellulose) (HPC)) 97 % of control; (dose: 45.0 mg/kg/injection, schedule: Q01DX005 (ip), vehicle: Klucel (hydroxypropylcellulose) (HPC)) 103 % of control; (dose: 90.0 mg/kg/injection, schedule: Q01DX005 (ip), vehicle: Klucel (hydroxypropylcellulose) (HPC)) 104 % of control; (dose: 180.0 mg/kg/injection, schedule: Q01DX005 (ip), vehicle: Klucel (hydroxypropylcellulose) (HPC)) 99 % of control.

For `c1ccc([C@H]2N[C@@H]2c2ccccn2)cc1`, the T/C is, setting by setting: under setting [8], 106 % of control; under setting [9], 93 % of control.
